Counter-ions that a name gives are not always drawn. Each block holds one compound with its values, some of them ahead of it.
Tests used:
[1] = tested on: visceral pain in response to colorectal distension; test: Rat model of visceral pain perception (colorectal distension, AWR score); format: in vivo, Rats (male, Wistar); conditions: for pain perception: equimolar doses: mesalamine 50, Compound XXXV 130, ADT-OH 80, Compound XXVII 100, 4-HTB 50 mg/kg; for pain perception / pain perception score: vs vehicle-treated group; for pain perception score after glibenclamide pretreatment / pain perception score: 0.8 mL colorectal distention, 100 mg/kg, FIG. 17; for pain perception score after glibenclamide pretreatment: glibenclamide 10 mg/kg i.p. 30 min before
Protocol: A rat model of visceral pain perception, a pre-clinical model of irritable bowel syndrome, was used in the following example. Rats (male, Wistar, 200-250 g, obtained from Charles River, Monza, Italy), were housed in plastic cages and maintained under controlled conditions with 12-hours light/dark cycle with lights on at 7.00 AM. Tap water and standard laboratory chow were freely available. Before experiments, rats were individually trained by spending 2-3 hours per day in a plexiglass cage for 2-3 days. It allowed them to adjust to a movement-restriction environment. Food was withheld for 12 hours before colorectal distension (CRD) recording were performed. Experiments were performed in awake rats and were conducted in a blind manner in that the observer was not aware of the identity of drug administered to each animal.
In the testing day, rats were sedated with ether inhalation and a 2 cm long latex balloon was inserted intrarectally 2 cm from the anal verge and fixed at the base of the tail. The balloon was connected via a double-barreled cannula to a pressure transducer to continuously monitoring the rectal pressure by a computer (PowerLab PC, A.D. Instruments, Milford, Mass., USA) and to a syringe for inflation/deflation of the balloon. The rats were then housed in a small cage (20×8×8 cm) on an elevated Plexiglas™ platform and allowed to wake up and adapt for 1 hour. After recovery from sedation, animals underwent the CRD procedure and behavioral responses were tested. The night before the experiments, the balloons were inflated and left overnight so the latex stretched and the balloons became compliant.
CRD of 20 seconds, performed every 5 minutes, was applied in increment of 0.4 ml starting from 0.4 ml up to 1.6 ml water. To achieve an accurate measurement of the colonic parameters and perception, the distensions were repeated twice for each intensity and data for each animal were averaged for analysis. Each animal underwent a double set of CRD. Twenty minutes after the first sequence of CRD (0.4 mL-1.6 ml water), drugs were administered intraperitoneally (i.p.) and a second set of CRD was performed. Behavioral responses during the first and the second set of CRD were assessed and compared.
Behavioral response to CRD was assessed by measuring the abdominal withdrawal reflex (AWR) using a semiquantitative score (1).
The effects of mesalamine and Compound XXXV on colonic compliance and sensitivity were determined using a total of 8 fasting rats. To investigate whether the administration of mesalamine and Compound XXXV could revert pain induced by CRD, after the first sequence of CRD, […], after which a second set of CRD was repeated.
To determine the effect of mesalamine or Compound XXXV on colonic smooth muscle, the compliance of the colo-rectum during CRD was obtained from intracolo-rectal volume and pressure and expressed as mL/mmHg.
All data are presented as the mean±SEM, with sample sizes of 4 rats/group; statistical comparison of paired data was performed by the Wilcoxon signed rank test. An associated probability (p value) of less that 5% was considered significant.
A rat model of visceral pain perception as described above was used to compare pain perception scores for both Compound XXXV and Compound XXVII with or without glibenclamide, an inhibitor of ATP-sensitive K^+ (KATP) channels.

[2] = tested on: leukocyte adherence in mesenteric post-capillary venules; test: Leukocyte adherence to the vascular endothelium in vivo (intravital microscopy, aspirin-induced); parameters: species or system Rats
Protocol: Leukocyte adherence was studied using intravital microscopy, as described in detail previously (Wallace et al., (1993) Am. J. Physiol. 265: 993-998, incorporated hereto by reference). Rats were anesthetized with pentobarbital sodium (60 mg/kg i.p.) and cautery incisions were made along the abdominal region. A tracheotomy was performed to facilitate breathing. The rats were placed in a supine position, and a segment of the mesentery was exteriorized through the abdominal incision. The mesentery was carefully placed over an optically clear viewing pedestal that allowed for trans-illumination of a 2-cm^2 segment of tissue. All exposed tissue was covered with saline-soaked gauze to minimize dehydration. The temperature of the pedestal was kept at 37° C. and the mesentery was superfused with warmed bicarbonate-buffered saline (pH 7.4). An intravital microscope (Nikon L25/0.35) and a ×10 eyepiece were used to observe the mesenteric microcirculation. Post-capillary venules with diameters ranging from 20 to 40 μm were selected for the study. A video camera mounted on the microscope (Panasonic™ digital 5000) projected the image onto a monitor, and the images were recorded for playback analysis using a videocassette recorder. Images of the mesenteric microcirculation were recorded 5 minutes prior to aspirin administration (baseline), at the time of aspirin administration (time 0-5) and every 15 minutes for 60 minutes. Leukocyte adherence was blindly quantified from videotaped images of the vessels made over 5-min periods as the number of leukocytes that remained stationary along the vessel wall for 30 s or more (expressed per 100 μm venule length). Groups of rats (at least 5 in each) were pretreated with Compound XXXV (130 mg/kg), Compound XXVII (100 mg/kg), mesalamine (50 mg/kg), or vehicle 60 min prior to aspirin (or vehicle) administration. These drugs were given intragastrically. In some experiments, rats were treated with glibenclamide (10 mg/kg i.p.) or vehicle 30 min prior to administration of these compounds.

[3] = tested on: PE (1 μM) precontracted rings of thoracic aorta; test: Vasorelaxant effect on PE precontracted thoracic aorta rings; parameters: species or system CD-1 mice; conditions: cumulative concentration-response 10 nM-3 mM, endothelium present, vs vehicle; FIG. 22
Protocol: CD-1 mice were sacrificed and thoracic aorta was rapidly dissected and cleaned from fat and connective tissue. […] Changes in isometric tension were recorded with PowerLab™ data acquisition system (Ugo Basile, Italy). […] Rings were initially stretched until a resting tension of 1.5 g was reached and allowed to equilibrate for at least 40 minutes during which tension was adjusted, when necessary, to 1.5 g and bathing solution was periodically changed.
Vehicle represents buffer but no compound. Curves to tested compounds were constructed in presence of endothelium.
Data obtained are shown in FIG. 22 and are expressed as mean±SEM. The level of statistical significance was determined by 2-way analysis of variance (ANOVA) followed by Bonferroni's test for multiple comparison, using the GraphPad™ software.

[4] = tested on: mice having TNBS-induced colitis; test: TNBS-induced colitis in mice (disease activity score, colonic MPO activity); format: in vivo, Balb/c mice
Protocol: A standard experimental animal model of colitis induced by intracolonic administration of 2,4,6-trinitrobenzene sulfonic acid (TNBS) to mice is used in the following example. A detailed description of this model has been published (Santucci et al. (2003) Gastroenterology 124:1381-94) and is incorporated herein by reference. Briefly, 6-8 week old Balb/c mice were given TNBS intracolonically at a dose of 1.5 mg in 0.1 mL of 30% ethanol. The mice were randomized to the various treatment groups (n=6 per group). Beginning one hour later and continuing every 12 h for 5 days, the mice were treated orally with vehicle (1% carboxymethylcellulose (CMC)), 5-ASA (mesalamine) (25, 50 or 75 mg/kg) or with equimolar doses of 2-hydroxy-5-amino-benzoic acid 4-(thioxo-5H-[1,2]dithiol-3-yl)-phenyl ester hydrochloride (Compound XXXV) (130 mg/kg), or with […] (100 mg/kg), 50% (66 mg/kg) and 25% (33 mg/kg) of that dose. The mice were evaluated (blindly) on the final day of the study for the presence of diarrhea and fecal occult blood, and their body weights were measured. […] After sacrifice, a sample of the colon was excised for measurement of myeloperoxidase (MPO) activity, as a marker of granulocyte infiltration. All results were compared to those obtained with healthy mice as well.
FIGS. 3 and 4 show the Disease Activity Index and MPO activity, respectively, using the same experimental animal model of colitis as described above, in which Compound XXXV (130 mg/kg) was compared to equimolar doses of its two constituents, mesalamine (50 mg/kg) and 5-p-hydroxyphenyl-[…] (ADT-OH) (80 mg/kg), and a mixture of mesalamine (50 mg/kg) and ADT-OH (80 mg/kg). *p<0.05 versus the vehicle-treated group. Each group consisted of at least 5 rats.
FIGS. 6 and 7 show the Disease Activity Index and MPO, respectively, using the same experimental animal model of colitis as described above, in which Compound XXVII (100 mg/kg) was compared to equimolar doses of its two constituents, mesalamine (50 mg/kg) and 4-hydroxythiobenzamide (4-HTB) (50 mg/kg), mesalamine alone (50 mg/kg) and 4-HTB alone (50 mg/kg). *p<0.05 versus the vehicle-treated group. Each group consisted of at least 5 rats.
The same model was used as described above. In this example, the effects of mesalamine (50 mg/kg) were compared to those of equimolar doses of Compound XXXV. In addition to measuring the severity of colitis by measuring disease activity score and MPO activity, tissues were processed for measurement of a number of genes for inflammatory cytokines and other mediators.

[5] = after patients have taken the usual doses; Dig. Dis. Sci. 1989; 34: 573-578; cited from earlier work

melting point: 93 to 95 °C
SMILES: Nc1ccc(O)c(C(=O)Oc2ccc(-c3cc(=S)ss3)cc2)c1 (as salt: hydrochloride) [Compound XXXV, 5-Amino-2-hydroxy-benzoic acid 4-(5-thioxo-5H-[1,2]dithiol-3-yl)-phenyl ester]

SMILES: Oc1ccc(-c2cc(=S)ss2)cc1 [ADT-OH, 5-p-hydroxyphenyl-1,2-dithione-3-thione, reference compound]
pain perception [1]: Only Compound XXXV and Compound XXVII significantly reduced pain perception

SMILES: CC(=O)Oc1ccccc1C(=O)O [Aspirin, aspirin, reference compound]
leukocyte adherence after intragastric aspirin ([2]; vs baseline period / vehicle+vehicle group, FIG. 19): markedly increased leukocyte adherence

SMILES: NC(=S)c1ccc(O)cc1 [Compound 4-HTB, 4-hydroxythiobenzamide, reference compound]
pain perception [1]: Only Compound XXXV and Compound XXVII significantly reduced pain perception | vasorelaxant effect (% relaxation) [3]: significant vasorelaxant effects, which were concentration dependent

SMILES: NC(=S)c1ccc(OC(=O)c2cc(N)ccc2O)cc1 [Compound XXVII, 5-Amino-2-hydroxy-benzoic acid 4-thiocarbamoyl-phenyl ester]
Disease Activity Index ([4]; Compound XXVII 100 mg/kg vs mesalamine 50 mg/kg, 4-HTB 50 mg/kg and their mixture, FIG. 5): almost three times as effective as either mesalamine alone, 4-HTB alone or a mixture of mesalamine and 4-HTB | MPO activity (granulocyte infiltration) ([4]; Compound XXVII 100 mg/kg, FIG. 6): significantly reduced inflammation | pain perception score after glibenclamide pretreatment [1]: reversed by pretreatment with glibenclamide | pain perception score [1]: significantly reduced the pain perception | pain perception [1]: significantly reduced pain perception | aspirin-induced leukocyte adherence, final time period ([2]; minutes 60-65, Compound XXXV 130 mg/kg, Compound XXVII 100 mg/kg, FIG. 20): suppress aspirin-induced leukocyte adherence | aspirin-induced leukocyte adherence, final time period, with glibenclamide pretreatment ([2]; minutes 60-65, glibenclamide 10 mg/kg i.p., FIG. 20): glibenclamide pretreatment to reverse this inhibitor effect | melting point: 193 to 195 °C

SMILES: COc1ccc(Cl)cc1C(=O)NCCc1ccc(S(=O)(=O)NC(=O)NC2CCCCC2)cc1 [Glibenclamide, glibenclamide, reference compound]
leukocyte adherence, glibenclamide alone ([2]; glibenclamide 10 mg/kg i.p., no aspirin, FIG. 19): did not affect leukocyte adherence | aspirin-induced increase in leukocyte adherence ([2]; pretreatment: Compound XXXV 130 mg/kg or mesalamine 50 mg/kg intragastrically 60 min prior to aspirin, glibenclamide 10 mg/kg i.p., FIG. 19): did not affect the magnitude of aspirin-induced leukocyte adherence

SMILES: Nc1ccc(O)c(C(=O)O)c1 [mesalamine, 5-aminosalicylic acid]
pain perception score after glibenclamide pretreatment [1]: did not affect the pain perception | pain perception score [1]: had no significant effect | pain perception [1]: Only Compound XXXV and Compound XXVII significantly reduced pain perception | aspirin-induced leukocyte adherence with glibenclamide pretreatment ([2]; glibenclamide 10 mg/kg i.p. 30 min prior to the compound, compound plus aspirin, FIG. 19): no effect | mesalamine concentration in the colonic lumen [5]: up to 5 mM

SMILES: CC(=N)S [thioacetamide]
vasorelaxant effect (% relaxation) [3]: significant vasorelaxant effects, which were concentration dependent

Reference: patent US20110098257A1, “DERIVATIVES OF 4- OR 5-AMINOSALICYLIC ACID” (ANTIBE THERAPEUTICS INC., priority 2005, published 2011)
